The record followed here is ChEMBL document CHEMBL1139639, “A three-residue, continuous binding epitope peptidomimetic of ShK toxin as a Kv1.3 inhibitor” (Bioorg Med Chem Lett, 2005).

In general, EC50 refers to the concentration at which the effect is half-maximal.

This assay concerns the target Potassium voltage-gated channel subfamily A member 3 (Mus musculus, UniProt P16390). The assay can be described thus: Effective concentration against murine voltage-gated potassium channel subunit Kv1.3 expressed in L929 cells using patch clamp. The assay is classed as cell-based. A general note: Patch clamp records ionic current or voltage across a cell membrane.

Chain of Potassium voltage-gated channel subfamily A member 3 (P16390 whole entry): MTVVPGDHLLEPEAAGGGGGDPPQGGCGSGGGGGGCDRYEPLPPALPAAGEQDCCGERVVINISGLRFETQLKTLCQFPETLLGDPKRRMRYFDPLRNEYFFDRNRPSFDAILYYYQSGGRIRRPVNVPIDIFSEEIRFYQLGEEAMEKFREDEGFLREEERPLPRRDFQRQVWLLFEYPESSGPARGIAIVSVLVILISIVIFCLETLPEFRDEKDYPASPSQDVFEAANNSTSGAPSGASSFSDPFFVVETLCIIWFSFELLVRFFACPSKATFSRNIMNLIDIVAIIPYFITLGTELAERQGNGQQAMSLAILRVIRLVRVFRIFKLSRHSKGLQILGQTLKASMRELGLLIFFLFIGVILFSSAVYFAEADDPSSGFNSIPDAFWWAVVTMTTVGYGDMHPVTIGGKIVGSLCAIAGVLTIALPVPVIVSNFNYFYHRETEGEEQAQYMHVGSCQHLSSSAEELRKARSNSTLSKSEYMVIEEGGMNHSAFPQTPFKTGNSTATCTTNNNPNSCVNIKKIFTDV

Regarding `NCCCCNC(=O)c1ccc(CN=C(N)N)c2ccn(CCc3ccccc3)c12`, the EC50 came to 75 µM.
